Like-named read-outs stand apart in the source and are kept apart here.

For series [1], the target named is T1, Mtb Rv3802 (Mycobacterium tuberculosis, UniProt O53581). Type of series: biochemical. The settings on record: 100 μM inhibitor, no preincubation time.
Series [2] deals with T1, Mtb Rv3802. Nature of the series: biochemical. It counts as biochemical.
The target of series [3] is T2, Mtb Ag85C (Mycobacterium tuberculosis, UniProt P9WQN9). Nature of the series: Initial inhibition screen, Ag85C activity assay. Type of series: biochemical. The settings on record: for inhibition level of Ag85C: 100 μM inhibitor, 0 min preincubation, compared to the uninhibited control.
T2 sequence (P9WQN9 46-340): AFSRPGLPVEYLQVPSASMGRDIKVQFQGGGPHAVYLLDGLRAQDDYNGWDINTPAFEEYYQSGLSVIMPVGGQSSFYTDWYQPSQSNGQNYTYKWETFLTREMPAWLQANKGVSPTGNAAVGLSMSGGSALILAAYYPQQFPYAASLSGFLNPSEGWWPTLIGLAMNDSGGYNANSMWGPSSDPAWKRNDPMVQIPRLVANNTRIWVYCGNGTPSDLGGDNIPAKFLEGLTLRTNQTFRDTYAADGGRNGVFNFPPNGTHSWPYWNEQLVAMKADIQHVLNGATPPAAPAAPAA
Another series deals with Mtb strain H37Rv. The settings on record: cited from earlier work.
Series [4] addresses T2, Mtb Ag85C. Nature of the series: Ag85C kinact/KI determination. It counts as biochemical.
In another series the test system is Rv3802. The settings on record: THL to Rv3802, cited from earlier work.
For series [5], the target named is T3, Mtb Pks13-TE (Mycobacterium tuberculosis, UniProt I6X8D2). Nature of the series: Initial inhibition screen, Pks13-TE activity assay. It counts as biochemical.
T3 sequence (I6X8D2 1451-1733 limits assumed): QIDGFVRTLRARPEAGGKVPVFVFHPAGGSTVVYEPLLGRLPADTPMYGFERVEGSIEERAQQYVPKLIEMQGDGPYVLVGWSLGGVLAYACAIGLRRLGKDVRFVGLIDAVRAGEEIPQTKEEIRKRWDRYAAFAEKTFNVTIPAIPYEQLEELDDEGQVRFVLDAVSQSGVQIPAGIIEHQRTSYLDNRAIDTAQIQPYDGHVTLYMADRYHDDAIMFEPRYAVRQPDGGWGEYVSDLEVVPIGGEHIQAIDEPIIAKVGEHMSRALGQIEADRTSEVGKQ
Series [6] has as its target T3, Mtb Pks13-TE. Nature of the series: Pks13-TE reversible covalent inhibition and influence of trehalose. Type of series: biochemical.
Series [7] has as its system OC[C@H]1O[C@H](O[C@H]2O[C@H](CO)[C@@H](O)[C@H](O)[C@H]2O)[C@H](O)[C@@H](O)[C@@H]1O. Nature of the series: purified protein, by the assay type. The settings on record: other: Pks13-TE, acyl transfer from 4MH to trehalose; pH 7.5; 37.0 °C.
Where [8] appears, read: 20 nM Rv3802, linear rates from 2 to 6 min, no preincubation.
The mark [9] stands for this setting: read-out: increase in inhibition level of Pks13-TE from 0 to 3 h.
Where [10] appears, read: read-out: inhibition level of Pks13-TE at 4 h (decreased to).

T1 sequence (O53581 whole entry): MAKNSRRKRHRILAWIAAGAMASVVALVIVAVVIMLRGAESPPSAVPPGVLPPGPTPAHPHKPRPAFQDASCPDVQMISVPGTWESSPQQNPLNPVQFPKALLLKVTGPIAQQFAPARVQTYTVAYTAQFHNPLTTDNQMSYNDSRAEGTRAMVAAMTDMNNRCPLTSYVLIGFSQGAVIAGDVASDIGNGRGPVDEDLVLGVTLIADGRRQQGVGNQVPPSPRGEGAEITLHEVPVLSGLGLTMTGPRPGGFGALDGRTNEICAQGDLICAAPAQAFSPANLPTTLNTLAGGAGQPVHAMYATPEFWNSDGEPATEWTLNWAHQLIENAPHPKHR

Usually EC50 stands for the concentration needed to bring the measured effect to its halfway point. A low value points to a more potent agent. On to `CCCCCCCCCCC[C@H](C[C@@H]1OC(=O)[C@H]1CCCCCC)OC(=O)[C@@H](CC(C)C)NC=O` [2′,5-epi-THL], for which, at Mtb Rv3802 [1], the “inhibition level of Rv3802” value is “completely inhibit”. Moreover, the EC50 on Mtb Rv3802 [2] (setting [8]) turned out to be 28.7 ± 3.1 nM.

Take `CCCCCCCCCCCC(CC1OC(=O)C1CCCCCC)OC(=O)C(CC(C)C)NC=O` (single isomer, unassigned; ent1) [ent1-THL]: the “inhibition level of Rv3802” value on Mtb Rv3802 [1] (100 µM) came to 85.1 ± 1.4%. The same molecule displayed a concentration giving a half-maximal response (EC50) at Mtb Rv3802 [2] (setting [8]) of 15900 ± 1000 nM.

In the case of `CCCCCCCCCCCC(CC1OC(=O)C1CCCCCC)OC(=O)C(CC(C)C)NC=O` (single isomer, unassigned; ent3) [ent3-THL], the “inhibition level of Rv3802” value against Mtb Rv3802 [1] (100 µM) is 83.0 ± 2.9%. On Mtb Rv3802 [2] (setting [8]), the concentration for a half-maximal effect (EC50) amounted to 16600 ± 900 nM.

As a reminder, the inhibition is the change of the read-out against control, counted positive when it falls. Usually kinact/KI stands for the second-order rate constant of inactivation. In the case of `CCCCCCCCCCC[C@@H](C[C@@H]1OC(=O)[C@H]1CCCCCC)OC(=O)[C@H](CC(C)C)NC=O` [THL, Tetrahydrolipstatin], the inhibition at 100 µM on Mtb Ag85C [3] (read-out: inhibition level of Ag85C) turned out to be 31.8 ± 5.9%. Besides, the “minimum inhibitory concentration (MIC)” value in the series with Mtb strain H37Rv was ~ 15 μM. Also, the kinact/KI at Mtb Ag85C [4] was 70 M⁻¹ s⁻¹. Besides, the “inhibition level of Rv3802” value at Mtb Rv3802 [1] is recorded as “completely inhibit”. In the series on Rv3802, the IC50 entry is “low micromolar”. The Ki on Rv3802 (read-out: apparent KI) is 5 nM. For the same molecule, the midpoint of the response on Mtb Rv3802 [2], the EC50, lay at 16.2 ± 0.8 nM. Moreover, the inhibition at 100 µM at Mtb Pks13-TE [5] (read-out: inhibition level of Pks13-TE) is 50 to 60%. Further, at Mtb Pks13-TE [6] (Pks13-TE versus Rv3802), the “retention of covalent coupling with THL, fold longer than Rv3802” value was “at least 10 fold”. For the same molecule, the “slowing of the rate of inactivation of Pks13-TE by presence of trehalose” value at Mtb Pks13-TE [6] (THL inhibition with versus without trehalose) is reported as 48 ± 6.7%. Further, at Mtb Pks13-TE [6] (setting [9]), the inhibition at 12.5 µM amounted to 62.3 ± 5%, the inhibition at 25 µM was determined as 61.8 ± 3.5% and the inhibition at 50 µM worked out at 44.1 ± 3.5%. In addition, on Mtb Pks13-TE [6] (setting [10]), the inhibition at 12.5 µM stood at 15.2 ± 1.4%, the inhibition at 25 µM is 11.6 ± 0.4% and the inhibition at 50 µM was 16 ± 2.1%.

`CCCCCCCCCCC[C@H](C[C@H]1OC(=O)[C@@H]1CCCCCC)OC(=O)[C@H](CC(C)C)NC=O` (single isomer, unassigned; ent2) [ent2-THL]: on Mtb Rv3802 [1], the “inhibition level of Rv3802” value is given as 83.9 ± 0.6%. Moreover, the concentration for a half-maximal effect (EC50) on Mtb Rv3802 [2] (setting [8]) came out at 15900 ± 1100 nM. For the same molecule, at Mtb Pks13-TE [5] (100 μM inhibitor, 1 h preincubation, compared to uninhibited reactions), the Pks13-TE activity remaining is ~ 30%.

One may read the Km as the concentration of substrate that gives half-maximal velocity. As to “Mtb Pks13-TE (Mycobacterium tuberculosis H37Rv)”, in series [7], the Km stood at 56.6 ± 7.9 mM.

As to `CCCCCCCCCCC[C@H](C[C@@H]1OC(=O)[C@H]1CCCCCC)OC(=O)[C@H](CC(C)C)NC=O` [5-epi-THL], at Mtb Ag85C [3], the “inhibition level of Ag85C” value came out at 12.3 ± 2.6%. Further, the “inhibition level of Rv3802” value against Mtb Rv3802 [1] is reported as “completely inhibit”. Besides, on Mtb Rv3802 [2] (setting [8]), the EC50 was determined as 12.6 ± 1.2 nM.

Regarding `CCCCCCCCCCCC(CC1OC(=O)C1CCCCCC)OC(=O)C(CC(C)C)NC=O` (single isomer, unassigned; ent4) [ent4-THL], the “inhibition level of Rv3802” value against Mtb Rv3802 [1] (100 µM) amounted to 79.0 ± 1.7%. The response on Mtb Rv3802 [2] (setting [8]) was half-maximal at 62100 ± 4100 nM (EC50).

Take `CCCCCCCCCCC[C@@H](C[C@@H]1OC(=O)[C@H]1CCCCCC)OC(=O)[C@@H](CC(C)C)NC=O` [2′-epi-THL]: at Mtb Ag85C [3], the “inhibition level of Ag85C” value was 35.8 ± 2.2%. On Mtb Ag85C [4] (Ag85C), the “fold lower binding affinity (KI) compared to THL” value is reported as ~ 4.5 fold and the “fold lower kinact/KI value compared to THL” value is given as ~ 4 fold. The kinact/KI on Mtb Ag85C [4] (Ag85C, inhibitor 300 to 12.5 μM, 40 min progress curves) is 1.1 ± 0.3 × 10^−3 μM^−1 min^−1. For the same molecule, the “inhibition level of Rv3802” value against Mtb Rv3802 [1] is on record as “completely inhibit”. The molecule also registered an EC50 at Mtb Rv3802 [2] (setting [8]) of 9.2 ± 0.5 nM.
